Source: patent US11214561B2, “Histone methyltransferase EZH2 inhibitor, preparation method and pharmaceutical use thereof” (ANCUREALL PHARMACEUTICAL (SHANGHAI) CO., LTD., priority 2017, dated 2022)

Legend:
[1] = test system: SU-DHL-8 (EZH2 WT); assay: In vitro 50% growth inhibition (GI50), MTT/CCK8, SU-DHL-8 cells; assay type: cell-based; settings: Homo sapiens, SU-DHL-8, 144 h; Drug treatment for 6 days
Source text: (§1) In the present invention, a representative tumor cell line was selected to determine the cell growth inhibition activity of the present compound. Cell culture conditions and methods were in accordance with the requirements for each cell lines. The cells were subcultured in vitro for less than 3 generations each time, and as required, monoclone purification and identification of cell lines could be carried out.
(§2) The cell culture media used were RPMI1640 (Gibco) comprising 5-20% of fetal bovine serum (Gibco), 1% of double-antibiotic and 2 mM of glutamine.
(§3) Suspension culture cells were collected by centrifugation (1700 rpm, 3 minutes), and the supernatant was discarded and the cells were counted. According to each cell growth cycle, different concentrations of cells were prepared (1-10×10^4 cells per ml) and added to 96-well plates (Corning) with 100 μl per well, and then incubated overnight at 37° C., 5% CO2. The next day, the test compound was added to the cultured cells (2 wells in parallel). The final concentration of the solvent was less than 1/1,000. The cells were further cultured for 6 to 12 days and assayed by MTT.
(§4) The compound was stored at a concentration of 10 mM at −20° C. and diluted to two-fold or 10-fold series prior to use.
(§5) For the suspension culture cells, CCK8 was directly added to 10% of the final concentration. The cells were continually incubated for […].
(§6) The experiments were repeated 3 times and a statistical analysis of data was conducted.

[2] = test system: Karpas-422 (EZH2 Y641N); assay: In vitro 50% growth inhibition (GI50), MTT/CCK8, Karpas-422 cells; assay type: cell-based; settings: Homo sapiens, KARPAS-422, 144 h; Drug treatment for 6 days
Source text: as §1, §2, §3, §4, §5, §6

[3] = test system: Pfeiffer (EZH2 A677G); assay: In vitro 50% growth inhibition (GI50), MTT/CCK8, Pfeiffer cells; assay type: cell-based, Human; settings: Homo sapiens, Pfeiffer, 240 h; Drug treatment for 10 days
Source text: as §1, §2, §3, §4, §5, §6

| Structure (SMILES) | GI50 [1] [nM] | GI50 [2] [nM] | GI50 [3] [nM] |
| --- | --- | --- | --- |
| C=CC(=O)N1CCC(N(CC)c2cc(Br)cc(C(=O)NCc3c(C)cc(C)[nH]c3=O)c2C)C1 (stereo not drawn) [Example 1, 3-[(1-acryloyl-pyrrolidin-3-yl)-ethyl-amino]-5-bromo-N-(4,6-dimethyl-2-oxo-1,2-dihydro-pyridin-3-ylmethyl)-2-methyl-benzamide] | > 1000 | 10 to 100 | 1 to 10 |
| C=CC(=O)N1CCC(N(CC)c2cc(F)cc(C(=O)NCc3c(C)cc(C)[nH]c3=O)c2C)C1 (stereo not drawn) [Example 2, 3-[(1-acryloyl-pyrrolidin-3-yl)-ethyl-amino]-5-fluoro-N-(4,6-dimethyl-2-oxo-1,2-dihydro-pyridin-3-ylmethyl)-2-methyl-benzamide] | > 1000 | 10 to 100 | 10 to 100 |
| C=CC(=O)N1CCC(N(CC)c2cc(Cl)cc(C(=O)NCc3c(C)cc(C)[nH]c3=O)c2C)C1 (stereo not drawn) [Example 3, 3-[(1-acryloyl-pyrrolidin-3-yl)-ethyl-amino]-5-chloro-N-(4,6-dimethyl-2-oxo-1,2-dihydro-pyridin-3-ylmethyl)-2-methyl-benzamide] | > 1000 | 10 to 100 | 1 to 10 |
| C=CC(=O)N1CCC(N(CC)c2cc(Br)cc(C(=O)NCc3c(C)cc(C)[nH]c3=O)c2C)CC1 [Example 6, 3-[(1-acryloyl-piperidin-4-yl)-ethyl-amino]-5-bromo-N-(4,6-dimethyl-2-oxo-1,2-dihydro-pyridin-3-ylmethyl)-2-methyl-benzamide] | > 1000 | 10 to 100 | 1 to 10 |
| C=CC(=O)N1CCC(N(CCCC)c2cc(Br)cc(C(=O)NCc3c(C)cc(C)[nH]c3=O)c2C)C1 (stereo not drawn) [Example 9, 3-[(1-acryloyl-pyrrolidin-3-yl)-butyl-amino]-5-bromo-N-(4,6-dimethyl-2-oxo-1,2-dihydro-pyridin-3-ylmethyl)-2methyl-benzamide] | > 1000 | > 1000 | 10 to 100 |
| C=CC(=O)N1CCC(N(C)c2cc(Br)cc(C(=O)NCc3c(C)cc(C)[nH]c3=O)c2C)C1 (stereo not drawn) [Example 10, 3-[(1-acryloyl-pyrrolidin-3-yl)-methyl-amino]-5-bromo-N-(4,6-dimethyl-2-oxo-1,2-dihydro-pyridin-3-ylmethyl)-2methyl-benzamide] | > 1000 | > 1000 | 10 to 100 |
| CC#CC(=O)N1CCC(N(CC)c2cc(Br)cc(C(=O)NCc3c(C)cc(C)[nH]c3=O)c2C)C1 (stereo not drawn) [Example 15] | > 1000 | 10 to 100 | 1 to 10 |
| C=CC(=O)N1CCC(N(CC)c2cc(OC)cc(C(=O)NCc3c(C)cc(C)[nH]c3=O)c2C)C1 (stereo not drawn) [Example 16, 3-[(1-acryloyl-pyrrolidin-3-yl)-ethyl-amino]-5-methoxy-N-(4,6-dimethyl-2-oxo-1,2-dihydrogen-pyridin-3-ylmethyl)-2methyl-benzamide] | > 1000 | 100 to 1000 | 10 to 100 |
| C=CC(=O)N1CCC(N(CC)c2cc(-c3ccc(CN4CCCCC4)cc3)cc(C(=O)NCc3c(C)cc(C)[nH]c3=O)c2C)C1 (stereo not drawn) [Example 18, N-(4,6-dimethyl-2-oxo-1,2-dihydro-pyridin-3-ylmethyl)-5-[(1-acryloyl-pyrrolidin-3-yl)-ethyl-amino]-4′-(piperidin-1-ylmethyl)-4-methyl-biphenyl-3-carboxamide] | > 1000 | 10 to 100 | 1 to 10 |
| C=CC(=O)N1CCC(N(CC)c2cc(-c3ccc(CN(C)C)cc3)cc(C(=O)NCc3c(C)cc(C)[nH]c3=O)c2C)C1 (stereo not drawn) [Example 19, N-(4,6-dimethyl-2-oxo-1,2-dihydro-pyridin-3-ylmethyl)-5-[(1-acryloyl-pyrrolidin-3-yl)-ethyl-amino]-4′-(dimethylaminomethyl)-4-methyl-biphenyl-3-carboxamide] | > 1000 | 100 to 1000 | 10 to 100 |
| C=CC(=O)N1CCC(N(CC)c2cc(-c3ccc(CN4CCOCC4)cc3)cc(C(=O)NCc3c(C)cc(C)[nH]c3=O)c2C)C1 (stereo not drawn) [Example 20, N-(4,6-dimethyl-2-oxo-1,2-dihydro-pyridin-3-ylmethyl)-5-[(1-acryloyl-pyrrolidin-3-yl)-ethyl-amino]-4′-(morpholin-4-ylmethyl)-4-methyl-biphenyl-3-carboxamide] | > 1000 | 100 to 1000 | 1 to 10 |
| C=CC(=O)N1CCC(N(CC)c2cc(-c3ccc(CN4CCOCC4)c(Cl)c3)cc(C(=O)NCc3c(C)cc(C)[nH]c3=O)c2C)C1 (stereo not drawn) [Example 21, N-(4,6-dimethyl-2-oxo-1,2-dihydro-pyridin-3-ylmethyl)-5-[(1-acryloyl-pyrrolidin-3-yl)-ethyl-amino]-3′-chloro-4′-(morpholin-4-ylmethyl)-4-methyl-biphenyl-3-carboxamide] | > 1000 | 100 to 1000 | 1 to 10 |
| C=CC(=O)N1CCC(N(CC)c2cc(-c3ccc(CN4CCOCC4)c(F)c3)cc(C(=O)NCc3c(C)cc(C)[nH]c3=O)c2C)C1 (stereo not drawn) [Example 23, N-(4,6-dimethyl-2-oxo-1,2-dihydro-pyridin-3-ylmethyl)-5-[(1-acryloyl-pyrrolidin-3-yl)-ethyl-amino]-3′-fluoro-4′-(morpholin-4-ylmethyl)-4-methyl-biphenyl-3-carboxamide] | > 1000 | 10 to 100 | 1 to 10 |
| C=CC(=O)N1CCC(N(CC)c2cc(-c3ccc(N4CCOCC4)cc3)cc(C(=O)NCc3c(C)cc(C)[nH]c3=O)c2C)C1 (stereo not drawn) [Example 24, N-(4,6-dimethyl-2-oxo-1,2-dihydro-pyridin-3-ylmethyl)-5-[(1-acryloyl-pyrrolidin-3-yl)-ethyl-amino]-4′-(morpholin-4-yl)-4-methyl-biphenyl-3-carboxamide] | > 1000 | 100 to 1000 | 1 to 10 |
| C=CC(=O)N1CCC(N(CC)c2cc(-c3cccc(CN4CCOCC4)c3)cc(C(=O)NCc3c(C)cc(C)[nH]c3=O)c2C)C1 (stereo not drawn) [Example 30, N-(4,6-dimethyl-2-oxo-1,2-dihydro-pyridin-3-ylmethyl)-5-[(1-acryloyl-pyrrolidin-3-yl)-ethyl-amino]-4-methyl-3′-(morpholin-4-yl)-methyl-[1,1′-biphenyl]-3-carboxamide] | > 1000 | 10 to 100 | 1 to 10 |
| C=CC(=O)N1CCC(N(CC)c2cc(-c3cccc(CN4CCCCC4)c3)cc(C(=O)NCc3c(C)cc(C)[nH]c3=O)c2C)C1 (stereo not drawn) [Example 31, N-(4,6-dimethyl-2-oxo-1,2-dihydro-pyridin-3-ylmethyl)-5-[(1-acryloyl-pyrrolidin-3-yl)-ethyl-amino]-4-methyl-3′-(piperidin-1-ylmethyl)-[1,1′-biphenyl]-3-carboxamide] | > 1000 | 10 to 100 | 1 to 10 |
| C=CC(=O)N1CCC(N(CC)c2cc(-c3ccc(OCCN4CCOCC4)cc3)cc(C(=O)NCc3c(C)cc(C)[nH]c3=O)c2C)C1 (stereo not drawn) [Example 48, N-(4,6-dimethyl-2-oxo-1,2-dihydro-pyridin-3-ylmethyl)-5-[(1-acryloyl-pyrrolidin-3-yl)-ethyl-amino]-4-methyl-4′-[2-(morpholin-4-yl)-ethoxy]-[1,1′-biphenyl]-3-carboxamide] | > 1000 | 100 to 1000 | 10 to 100 |
| C=CC(=O)N1CCC(N(CC)c2cc(C#CCN3CCOCC3)cc(C(=O)NCc3c(C)cc(C)[nH]c3=O)c2C)C1 (stereo not drawn) [Example 51, N-(4,6-dimethyl-2-oxo-1,2-dihydro-pyridin-3-ylmethyl)-3-[(1-acryloyl-pyrrolidin-3-yl)-ethyl-amino]-2-methyl-5-[3-(morpholin-4-yl)-propyn-1-yl]-benzamide] | > 1000 | 10 to 100 | 1 to 10 |
| C=CC(=O)N1CCC(N(CC)c2cc(-c3ccc(N4CCOCC4)nc3)cc(C(=O)NCc3c(C)cc(C)[nH]c3=O)c2C)C1 (stereo not drawn) [Example 52, N-(4,6-dimethyl-2-oxo-1,2-dihydro-pyridin-3-ylmethyl)-3-[(1-acryloyl-pyrrolidin-3-yl)-ethyl-amino]-2-methyl-5-[6-(morpholin-4-yl)-pyridin-3-yl]-benzamide] | > 1000 | 10 to 100 | 1 to 10 |
| C=CC(=O)N1CCC(N(CC)c2cc(-c3ccc(N4CCN(C)CC4)nc3)cc(C(=O)NCc3c(C)cc(C)[nH]c3=O)c2C)C1 (stereo not drawn) [Example 53, N-(4,6-dimethyl-2-oxo-1,2-dihydro-pyridin-3-ylmethyl)-3-[(1-acryloyl-pyrrolidin-3-yl)-ethyl-amino]-2-methyl-5-[6-(4-methylpiperazin-1-yl)-pyridin-3-yl]-benzamide] | > 1000 | 10 to 100 | 1 to 10 |
| C=CC(=O)N1CCC(N(CC)c2cc(-c3ccc(CN4CCOCC4)c(F)c3)cc(C(=O)NCc3c(C)cc(C)[nH]c3=O)c2C)CC1 [Example 62, N-(4,6-dimethyl-2-oxo-1,2-dihydro-pyridin-3-ylmethyl)-5-[(1-acryloyl-piperidin-4-yl)-ethyl-amino]-3′-fluoro-4-methyl-4′-(morpholin-4-ylmethyl)-[1,1′-biphenyl]-3-carboxamide] | > 1000 | 10 to 100 | 1 to 10 |
